Laboratory results taken from patent US20250361210A1, “3,4-DIHYDROQUINOLIN-2(1H)-ONE COMPOUND” (Kissei Pharmaceutical Co., Ltd., priority 2022, published 2025).

What follows are compounds tested against T1, human TSHR (Homo sapiens, UniProt P16473) (assay: Antagonist activity using TSH-induced cAMP production in human TSHR-stably expressing CHO cells). Details: human TSH 50 ng/mL.
T1 construct: expressed in transfected cells
Format: cell-based
Procedure: Measurement of Antagonist Activity Using TSH-Induced cAMP Production in Human TSHR-Stably Expressing CHO Cells as an Indicator
The human TSHR gene sequence (reference number NM_000369.2) was inserted into the multicloning site of pcDNA3.1(+). The constructed plasmid vector was introduced into CHO cells using the lipofection method to establish human TSHR-stably expressing CHO cells. The obtained cells were seeded at 5×10^4 cells/well in a 96-well poly-D-lysine-coated plate, and cultured in an F12 culture medium containing 10% FBS, 400 μg/mL of G418, 50 U/mL of penicillin and 50 μg/mL of streptomycin under conditions of 37° C. and 5% CO2 for 1 day. After the culture medium was removed, the cells were washed twice with 100 μL of an assay buffer solution (Hanks' Balanced Salt Solution containing 20 mM HEPES and 1 mM IBMX) per well. 30 μL of a test compound-containing assay buffer solution was added to the well and incubated at room temperature for 15 minutes. Then, 30 μL of an assay buffer solution containing human TSH (final concentration 50 ng/mL, R&D Systems, Inc.) was added, and incubated at 37° C. for 1 hour. The supernatant was removed, a Lysis and Detection Buffer 2 (Cisbio) was added, and the mixture was incubated at room temperature for 1 hour to prepare a cell lysate. According to the instruction manual of a cAMP Gs HiRange kit (Cisbio), the cell lysate, d2-labeled cAMP and anti-cAMP Europium Cryptate labeled antibodies (Cisbio) were reacted in a 384-well white microplate. Then, a fluorescence intensity ratio (measurement wavelength 665 nm/620 nm) was measured using a multi-plate reader (PHERAstar FSX, BMG LABTECH, Japan). The fluorescence intensity ratio of each sample was converted to a cAMP content using a standard curve. The cAMP content was converted as a percentage of the control value to calculate the cAMP production rate. The CAMP production rate was plotted against the test compound concentration using Prism (Graph Pad Software Inc.) to calculate the IC50 value. The IC50 of each test compound is shown in the above tables. In the tables, IC50<0.5 μM: A, 0.5 μM≤IC50<3.0 μM: B, 3.0 μM≤IC50<30 μM: C are shown.

T1 sequence (P16473 21-764): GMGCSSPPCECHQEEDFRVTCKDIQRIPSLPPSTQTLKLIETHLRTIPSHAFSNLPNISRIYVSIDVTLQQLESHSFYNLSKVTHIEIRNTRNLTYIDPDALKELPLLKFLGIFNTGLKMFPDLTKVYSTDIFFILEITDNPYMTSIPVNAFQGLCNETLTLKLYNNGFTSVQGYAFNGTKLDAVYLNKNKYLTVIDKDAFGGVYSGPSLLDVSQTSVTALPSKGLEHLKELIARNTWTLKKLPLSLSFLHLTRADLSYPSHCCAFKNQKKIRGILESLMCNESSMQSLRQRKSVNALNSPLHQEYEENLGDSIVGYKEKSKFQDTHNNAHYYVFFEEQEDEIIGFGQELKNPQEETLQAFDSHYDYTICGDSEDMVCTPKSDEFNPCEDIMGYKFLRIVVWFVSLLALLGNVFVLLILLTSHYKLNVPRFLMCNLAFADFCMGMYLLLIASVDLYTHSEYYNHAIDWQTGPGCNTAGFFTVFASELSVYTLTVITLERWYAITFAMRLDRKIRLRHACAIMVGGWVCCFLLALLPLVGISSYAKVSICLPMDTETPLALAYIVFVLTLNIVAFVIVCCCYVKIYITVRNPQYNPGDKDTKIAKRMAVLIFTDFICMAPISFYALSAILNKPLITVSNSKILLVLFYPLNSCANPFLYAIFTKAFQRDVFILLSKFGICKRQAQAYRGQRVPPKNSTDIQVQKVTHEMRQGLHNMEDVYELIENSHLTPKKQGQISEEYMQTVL

Row | SMILES | IC50
1 | CN1C(=O)[C@H](NC(N)=O)Cc2cccc(Oc3cc(F)ccc3C(F)(F)F)c21 [Example 21, ((3R)-8-(5-fluoro-2-(trifluoromethyl)phenoxy)-1-methyl-2-oxo-1,2,3,4-tetrahydroquinolin-3-yl)urea] | < 0.5 µM
2 | CN1C(=O)[C@H](NC(N)=O)Cc2ccc(Cl)c(Oc3ccccc3Cl)c21 [Example 22, ((3R)-7-chloro-8-(2-chlorophenoxy)-1-methyl-2-oxo-1,2,3,4-tetrahydroquinolin-3-yl)urea] | < 0.5 µM
3 | CN1C(=O)[C@H](NC(N)=O)Cc2ccc(Cl)c(Oc3ccccc3F)c21 [Example 23, ((3R)-7-chloro-8-(2-fluorophenoxy)-1-methyl-2-oxo-1,2,3,4-tetrahydroquinolin-3-yl)urea] | < 0.5 µM
4 | CN1C(=O)[C@H](NC(N)=O)Cc2cccc(Oc3cccc(OC(F)F)c3)c21 [Example 24, ((3R)-8-(3-(difluoromethoxy)phenoxy)-1-methyl-2-oxo-1,2,3,4-tetrahydroquinolin-3-yl)urea] | 0.5 to 3 µM
5 | COc1cccc(Oc2c(Cl)ccc3c2N(C)C(=O)[C@H](NC(N)=O)C3)c1 [Example 25] | 0.5 to 3 µM
6 | CN1C(=O)[C@H](NC(N)=O)Cc2ccc(Cl)c(Oc3cccc(F)c3)c21 [Example 26, ((3R)-7-chloro-8-(3-fluorophenoxy)-1-methyl-2-oxo-1,2,3,4-tetrahydroquinolin-3-yl)urea] | < 0.5 µM
7 | CN1C(=O)[C@H](NC(N)=O)Cc2ccc(Cl)c(Oc3ccccc3C(F)F)c21 [Example 27, ((3R)-7-chloro-8-(2-(difluoromethyl)phenoxy)-1-methyl-2-oxo-1,2,3,4-tetrahydroquinolin-3-yl)urea] | < 0.5 µM
8 | CN1C(=O)[C@H](NC(N)=O)Cc2cccc(Oc3cc(F)ccc3C(F)F)c21 [Example 28] | < 0.5 µM
9 | CN1C(=O)[C@H](NC(N)=O)Cc2cccc(Oc3ccc(F)cc3C(F)F)c21 [Example 29] | < 0.5 µM
10 | COc1ccc(Cl)c(Oc2cccc3c2N(C)C(=O)[C@H](NC(N)=O)C3)c1 [Example 30, ((3R)-8-(2-chloro-5-methoxyphenoxy)-1-methyl-2-oxo-1,2,3,4-tetrahydroquinolin-3-yl)urea] | < 0.5 µM
11 | Cc1ccc2c(c1Oc1ccccc1Cl)N(C)C(=O)[C@H](NC(N)=O)C2 [Example 31, ((3R)-8-(2-chlorophenoxy)-1,7-dimethyl-2-oxo-1,2,3,4-tetrahydroquinolin-3-yl)urea] | < 0.5 µM
12 | CN1C(=O)[C@H](NC(N)=O)Cc2ccc(OCc3ccccc3)c(Oc3ccccc3Cl)c21 [Example 32] | 3 to 30 µM
13 | CN1C(=O)[C@H](NC(N)=O)Cc2ccc(O)c(Oc3ccccc3Cl)c21 [Example 33, ((3R)-8-(2-chlorophenoxy)-7-hydroxy-1-methyl-2-oxo-1,2,3,4-tetrahydroquinolin-3-yl)urea] | 0.5 to 3 µM
14 | CCN1C(=O)[C@H](NC(N)=O)Cc2cccc(Oc3ccccc3Cl)c21 [Example 34, ((3R)-8-(2-chlorophenoxy)-1-ethyl-2-oxo-1,2,3,4-tetrahydroquinolin-3-yl)urea] | < 0.5 µM
15 | CN1C(=O)[C@H](NC(N)=O)Cc2cccc(Oc3cc(F)c(F)cc3Cl)c21 [Example 35, ((3R)-8-(2-chloro-4,5-difluorophenoxy)-1-methyl-2-oxo-1,2,3,4-tetrahydroquinolin-3-yl)urea] | < 0.5 µM
16 | CN1C(=O)[C@H](NC(N)=O)Cc2ccc(F)c(Oc3ccccc3C(F)(F)F)c21 [Example 36] | 0.5 to 3 µM
17 | CN1C(=O)[C@H](NC(N)=O)Cc2ccc(Cl)c(Oc3cc(F)ccc3Cl)c21 [Example 37, ((3R)-7-chloro-8-(2-chloro-5-fluorophenoxy)-1-methyl-2-oxo-1,2,3,4-tetrahydroquinolin-3-yl)urea] | < 0.5 µM
18 | Cc1ccc2c(c1Oc1ccccc1C(F)F)N(C)C(=O)[C@H](NC(N)=O)C2 [Example 38, ((3R)-8-(2-(difluoromethyl)phenoxy)-1,7-dimethyl-2-oxo-1,2,3,4-tetrahydroquinolin-3-yl)urea] | < 0.5 µM
19 | Cc1ccc2c(c1Oc1cc(F)ccc1Cl)N(C)C(=O)[C@H](NC(N)=O)C2 [Example 39, ((3R)-8-(2-chloro-5-fluorophenoxy)-1,7-dimethyl-2-oxo-1,2,3,4-tetrahydroquinolin-3-yl)urea] | < 0.5 µM

Row | SMILES | IC50
20 | CN1C(=O)[C@H](NC(N)=O)Cc2cccc(Oc3ccccc3Cl)c21 [Example 40, ((3R)-8-(2-chlorophenoxy)-1-methyl-2-oxo-1,2,3,4-tetrahydroquinolin-3-yl)urea] | < 0.5 µM
21 | CN1C(=O)[C@H](NC(N)=O)Cc2cccc(OC3CCCCC3)c21 [Example 41] | 0.5 to 3 µM
22 | CN1C(=O)[C@H](NC(N)=O)Cc2cccc(OC3CCCC3)c21 [Example 42, ((3R)-8-(cyclopentyloxy)-1-methyl-2-oxo-1,2,3,4-tetrahydroquinolin-3-yl)urea] | 0.5 to 3 µM
23 | CN1C(=O)[C@H](NC(N)=O)Cc2ccc(F)c(Oc3ccccc3C(F)F)c21 [Example 43, ((3R)-8-(2-(difluoromethyl)phenoxy)-7-fluoro-1-methyl-2-oxo-1,2,3,4-tetrahydroquinolin-3-yl)urea] | 0.5 to 3 µM
24 | CN1C(=O)[C@H](NC(N)=O)Cc2ccc(F)c(Oc3cc(F)ccc3Cl)c21 [Example 44, ((3R)-8-(2-chloro-5-fluorophenoxy)-7-fluoro-1-methyl-2-oxo-1,2,3,4-tetrahydroquinolin-3-yl)urea] | < 0.5 µM
25 | Cc1ccc2c(c1Oc1ccccc1F)N(C)C(=O)[C@H](NC(N)=O)C2 [Example 45, ((3R)-8-(2-fluorophenoxy)-1,7-dimethyl-2-oxo-1,2,3,4-tetrahydroquinolin-3-yl)urea] | < 0.5 µM
26 | Cc1ccc2c(c1Oc1cccc(F)c1)N(C)C(=O)[C@H](NC(N)=O)C2 [Example 46, ((3R)-8-(3-fluorophenoxy)-1,7-dimethyl-2-oxo-1,2,3,4-tetrahydroquinolin-3-yl)urea] | < 0.5 µM
27 | Cc1ccccc1Oc1cccc2c1N(C)C(=O)[C@H](NC(N)=O)C2 [Example 47, ((3R)-1-methyl-8-(2-methylphenoxy)-2-oxo-1,2,3,4-tetrahydroquinolin-3-yl)urea] | < 0.5 µM
28 | Cc1ccc(F)cc1Oc1cccc2c1N(C)C(=O)[C@H](NC(N)=O)C2 [Example 48, ((3R)-8-(5-fluoro-2-methylphenoxy)-1-methyl-2-oxo-1,2,3,4-tetrahydroquinolin-3-yl)urea] | < 0.5 µM
29 | CN1C(=O)[C@H](NC(N)=O)Cc2ccc(C(F)(F)F)c(Oc3ccccc3F)c21 [Example 49, ((3R)-8-(2-fluorophenoxy)-1-methyl-2-oxo-7-(trifluoromethyl)-1,2,3,4-tetrahydroquinolin-3-yl)urea] | < 0.5 µM
30 | Cc1ccc2c(c1Oc1cc(F)ccc1F)N(C)C(=O)[C@H](NC(N)=O)C2 [Example 50, ((3R)-8-(2,5-difluorophenoxy)-1,7-dimethyl-2-oxo-1,2,3,4-tetrahydroquinolin-3-yl)urea] | < 0.5 µM
31 | CN1C(=O)[C@H](NC(N)=O)Cc2cccc(Cc3ccccc3Cl)c21 [Example 51, ((3R)-8-((2-chlorophenyl)methyl)-1-methyl-2-oxo-1,2,3,4-tetrahydroquinolin-3-yl)urea] | < 0.5 µM
32 | CN1C(=O)[C@H](NC(N)=O)Cc2cccc(Cc3cc(F)ccc3Cl)c21 [Example 52] | < 0.5 µM
33 | CN1C(=O)[C@H](NC(N)=O)Cc2cccc(Cc3ccccc3C(F)(F)F)c21 [Example 53, ((3R)-1-methyl-2-oxo-8-((2-(trifluoromethyl)phenyl)methyl)-1,2,3,4-tetrahydroquinolin-3-yl)urea] | < 0.5 µM
34 | Cc1ccccc1Cc1cccc2c1N(C)C(=O)[C@H](NC(N)=O)C2 [Example 54, ((3R)-1-methyl-8-((2-methylphenyl)methyl)-2-oxo-1,2,3,4-tetrahydroquinolin-3-yl)urea] | < 0.5 µM
35 | CN1C(=O)[C@H](NC(N)=O)Cc2cccc(Cc3ccccc3C(F)F)c21 [Example 55, ((3R)-8-((2-(difluoromethyl)phenyl)methyl)-1-methyl-2-oxo-1,2,3,4-tetrahydroquinolin-3-yl)urea] | < 0.5 µM
36 | CN1C(=O)[C@H](NC(N)=O)Cc2ccc(F)c(Cc3cc(F)ccc3Cl)c21 [Example 56] | < 0.5 µM
37 | CN1C(=O)[C@H](NC(N)=O)Cc2ccc(Cl)c(Cc3cc(F)ccc3Cl)c21 [Example 57, ((3R)-7-chloro-8-((2-chloro-5-fluorophenyl)methyl)-1-methyl-2-oxo-1,2,3,4-tetrahydroquinolin-3-yl)urea] | < 0.5 µM
38 | Cc1ccc2c(c1Cc1ccccc1Cl)N(C)C(=O)[C@H](NC(N)=O)C2 [Example 58, ((3R)-8-((2-chlorophenyl)methyl)-1,7-dimethyl-2-oxo-1,2,3,4-tetrahydroquinolin-3-yl)urea] | < 0.5 µM
